# Patent publication US20230227398A1, “MESCALINE DERIVATIVES WITH MODIFIED ACTION” (Mind Medicine, Inc., priority 2021, published 2023)
# Entries after “also recorded” stand apart in the source; their conditions may differ.
# Tests used:
# 5-HT2A receptor = 5-HT2A receptor (Homo sapiens, UniProt P28223); settings: cited from earlier work
# [1] = target: T1, serotonin 5-HT2A receptor (Homo sapiens, UniProt P28223); settings: background art; cited from earlier work
# dopaminergic receptors = test: Binding to dopaminergic receptors (in vitro profiling); settings: in contrast to LSD
# [2] = humans (Charalampous, 1966); cited from earlier work
# [3] = target: T1, serotonin 5-HT2A receptor; test: 5-HT2A receptor binding (in vitro profiling at key targets)
# α2A receptors = target: T2, α2A receptors (Homo sapiens, UniProt P08913); settings: background art; cited from earlier work
# T2 sequence (P08913 1-465): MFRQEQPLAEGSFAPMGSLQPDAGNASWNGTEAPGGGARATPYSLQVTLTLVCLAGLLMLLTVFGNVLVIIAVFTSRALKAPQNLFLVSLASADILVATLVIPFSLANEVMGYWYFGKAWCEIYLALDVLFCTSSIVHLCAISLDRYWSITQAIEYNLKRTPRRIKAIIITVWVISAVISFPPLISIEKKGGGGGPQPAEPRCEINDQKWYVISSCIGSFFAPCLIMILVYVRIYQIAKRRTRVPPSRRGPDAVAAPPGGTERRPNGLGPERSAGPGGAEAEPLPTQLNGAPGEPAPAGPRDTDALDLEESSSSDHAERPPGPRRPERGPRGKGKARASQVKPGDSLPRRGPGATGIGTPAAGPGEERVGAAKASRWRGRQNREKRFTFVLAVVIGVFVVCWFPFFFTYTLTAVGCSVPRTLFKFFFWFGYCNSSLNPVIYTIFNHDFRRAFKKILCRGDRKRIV
# 5-HT transporter (SERT) = 5-HT transporter (SERT) (Homo sapiens, UniProt P31645); settings: cited from earlier work
# monoamine transporters = test: Inhibition of monoamine transport (in vitro profiling); format: biochemical
# Source text: Activity of compounds at monoamine transporters are thought to mediate MDMA-like empathogenic effects (Hysek et al., 2012). Importantly, mescaline is a very weak 5-HT2A receptor ligand and high doses are needed to induce psychoactive effects in humans. However, despite its low potency, mescaline can have extraordinarily strong psychedelic effects in humans at high doses and the same is likely the case for the substances developed within the present invention although 10-20-fold higher potency is also possible in some compounds, to be evaluated in detail clinically. Key results of pharmacological profiling of the compounds described herein were: […]
# 5-HT1A receptor = target: T3, 5-HT1A receptor (Homo sapiens, UniProt P08908); settings: background art; cited from earlier work
# T3 sequence (P08908 1-422): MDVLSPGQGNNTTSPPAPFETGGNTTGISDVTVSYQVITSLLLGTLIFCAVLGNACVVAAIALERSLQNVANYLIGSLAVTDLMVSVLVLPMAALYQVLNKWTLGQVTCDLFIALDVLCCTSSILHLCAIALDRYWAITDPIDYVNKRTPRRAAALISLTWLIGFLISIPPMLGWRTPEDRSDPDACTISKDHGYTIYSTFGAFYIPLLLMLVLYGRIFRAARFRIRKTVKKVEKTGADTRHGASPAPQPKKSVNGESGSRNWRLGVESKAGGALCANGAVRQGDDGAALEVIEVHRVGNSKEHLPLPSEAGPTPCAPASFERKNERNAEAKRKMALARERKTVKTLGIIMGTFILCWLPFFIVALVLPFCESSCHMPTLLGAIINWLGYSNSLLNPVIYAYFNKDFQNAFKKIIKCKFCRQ
# [4] = humans, cited from earlier work
# D2 receptors = D2 receptors (Homo sapiens, UniProt P14416); settings: cited from earlier work
# [5] = Duration of action and potency of mescaline derivatives; parameters: species or system humans; settings: in vivo
# Source text: Together, the in vitro profiles of mescaline and its derivatives represented in FIG. 1 compared with that of psilocin and LSD indicate overall psychedelic properties of all compounds but also differences that likely manifest when used in humans. Accordingly, some mescaline derivatives will exert psychedelic acute effect profiles that are more beneficial to some patients including but not limited to: more overall positive effects, more or less perceptual effects, more emotional effects, less anxiety, less cardio-stimulant effects, less adverse effects, less nausea, longer and also shorter effects among other properties and compared to mescaline. Specifically, taken together the pharmacological data and structural specifics on the substances tested herein some compounds are of particular interest. FE and FP have a relatively short duration of action (<6 hours) compared with mescaline and potentially empathogenic MDMA-like effects.
# The compounds represented by FIG. 1 act with shorter, with similar or with longer duration of action in human in comparison to the original mescaline molecule. This is triggered by modification of the molecular structure in FIG. 1.
# Chain of 5-HT2A receptor (P28223 whole entry): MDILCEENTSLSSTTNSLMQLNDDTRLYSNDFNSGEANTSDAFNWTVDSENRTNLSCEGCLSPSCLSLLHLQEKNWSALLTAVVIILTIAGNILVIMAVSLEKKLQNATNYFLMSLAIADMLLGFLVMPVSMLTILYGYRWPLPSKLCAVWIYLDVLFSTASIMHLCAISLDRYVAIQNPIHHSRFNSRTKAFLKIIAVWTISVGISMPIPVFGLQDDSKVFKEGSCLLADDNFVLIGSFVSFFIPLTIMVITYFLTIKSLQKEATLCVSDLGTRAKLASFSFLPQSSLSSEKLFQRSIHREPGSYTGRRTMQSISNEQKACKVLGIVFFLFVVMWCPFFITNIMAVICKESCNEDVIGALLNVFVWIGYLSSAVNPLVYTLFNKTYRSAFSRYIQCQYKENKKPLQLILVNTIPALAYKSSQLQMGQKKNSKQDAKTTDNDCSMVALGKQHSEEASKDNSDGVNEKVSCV
# Chain of D2 receptors (P14416 whole entry): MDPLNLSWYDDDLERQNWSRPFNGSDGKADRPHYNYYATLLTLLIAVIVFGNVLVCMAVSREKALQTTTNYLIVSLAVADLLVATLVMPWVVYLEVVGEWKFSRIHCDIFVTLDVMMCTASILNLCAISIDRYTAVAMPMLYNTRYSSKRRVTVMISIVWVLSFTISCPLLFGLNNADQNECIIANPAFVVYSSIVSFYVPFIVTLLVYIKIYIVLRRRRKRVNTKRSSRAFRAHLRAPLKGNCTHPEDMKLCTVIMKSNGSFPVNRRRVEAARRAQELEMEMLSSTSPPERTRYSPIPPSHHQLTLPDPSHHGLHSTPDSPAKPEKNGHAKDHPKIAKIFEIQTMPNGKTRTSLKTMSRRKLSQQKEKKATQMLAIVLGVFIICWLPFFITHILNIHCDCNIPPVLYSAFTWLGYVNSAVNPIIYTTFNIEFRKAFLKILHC
# Chain of 5-HT transporter (SERT) (P31645 whole entry): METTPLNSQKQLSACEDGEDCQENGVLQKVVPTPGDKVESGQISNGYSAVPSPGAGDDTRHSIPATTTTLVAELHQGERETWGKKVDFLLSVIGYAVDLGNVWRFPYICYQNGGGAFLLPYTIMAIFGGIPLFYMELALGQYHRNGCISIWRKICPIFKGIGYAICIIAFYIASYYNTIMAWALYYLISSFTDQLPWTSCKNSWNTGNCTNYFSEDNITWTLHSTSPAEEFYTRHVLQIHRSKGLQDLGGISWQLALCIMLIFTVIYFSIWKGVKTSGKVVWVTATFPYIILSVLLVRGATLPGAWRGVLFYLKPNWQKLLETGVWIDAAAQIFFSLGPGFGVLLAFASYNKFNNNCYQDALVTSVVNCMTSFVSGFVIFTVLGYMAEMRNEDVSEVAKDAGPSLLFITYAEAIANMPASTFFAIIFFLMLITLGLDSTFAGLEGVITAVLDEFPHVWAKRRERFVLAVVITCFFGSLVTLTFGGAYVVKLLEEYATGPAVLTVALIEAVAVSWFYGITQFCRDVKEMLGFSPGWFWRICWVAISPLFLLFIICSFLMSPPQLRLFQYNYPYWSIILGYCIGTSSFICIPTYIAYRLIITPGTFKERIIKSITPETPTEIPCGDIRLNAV
# T1 sequence (P28223 whole entry): as the sequence (P28223 whole entry) above
smiles,measurement,setting,value
"CN(C)CCc1c[nH]c2ccccc12 [DMT, N,N-dimethyltryptamine]",agonism / stimulation of the 5-HT2A receptor (in words),5-HT2A receptor,agonists
COc1cc(CCN)cc(OC)c1OC [mescaline],binding to 5-HT2A receptor (in words),[1],rather low concentration range
same,binding to dopaminergic receptors (in words),dopaminergic receptors,did not relevantly bind
same,"eliminated in urine unchanged, fraction of the dose ingested",[2],up to two thirds
same,plasma half-life,[2],approximately 6 hours
same,5-HT2A receptor binding affinity / binding potency (in words),[3],very weak
same,agonism / stimulation of the 5-HT2A receptor (in words),5-HT2A receptor,agonists
same,binding to α2A receptors (in words),α2A receptors,rather low concentration range
same,interaction with / inhibition of SERT (in words),5-HT transporter (SERT),do not interact
same,inhibition of monoamine transport (in words),monoamine transporters,did not inhibit monoamine transport
same,binding to 5-HT1A receptor (in words),5-HT1A receptor,rather low concentration range
same,subjective effects last (duration),[4]; dose-dependently,10 to 16 h
same,subjective effects appear (onset),[4]; psychoactive doses,≤ 30 min
same,subjective effects peak,[4]; psychoactive doses,4 h
same,doses needed to induce a full psychedelic experience,[4],200 to 800 mg
same,affinity / activity at D2 receptors (in words),D2 receptors,no affinity
CN(C)CCc1c[nH]c2cccc(O)c12 [Psilocin],agonism / stimulation of the 5-HT2A receptor (in words),5-HT2A receptor,stimulates
same,interaction with / inhibition of SERT (in words),5-HT transporter (SERT),inhibits
"CCN(CC)C(=O)[C@@H]1C=C2c3cccc4[nH]cc(c34)C[C@H]2N(C)C1 [LSD, lysergic acid diethylamide]",agonism / stimulation of the 5-HT2A receptor (in words),5-HT2A receptor,agonists; also recorded: potently stimulates
same,affinity / activity at D2 receptors (in words),D2 receptors,has activity
"COc1cc(CCN)cc(OC)c1OCC(F)(F)F.Cl [TFE, 3,5-Dimethoxy-4-(2,2,2-trifluoroethoxy)phenethylamine hydrochloride]",potency (in words),[5],relatively potent
"COc1cc(CCN)cc(OC)c1OC(F)F.Cl [DFM, 4-Difluoromethoxy-3,5-dimethoxyphenethylamine hydrochloride]",potency (in words),[5],relatively potent
